# Like-named read-outs stand apart in the source and are kept apart here.
# Tests used:
# cyclin E/CDK2 enzyme = biological target: T1, cyclin E/CDK2 enzyme (Homo sapiens, UniProt P24941); assay: CDK2 ELISA kinase assay (phospho-Rb ser 795 detection); type: biochemical
# T1 construct: made in house; host or cells: Sf9 insect cells, recombinant baculovirus
# Method in brief: (§1)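 Inhibition was derived from A450 relative to control wells lacking compound, following an anti-phospho-Rb Ser795 sandwich of HRP detection. The reactions combined coated GST-Rb fragment, 200 μM ATP and baculovirus-expressed cyclin/CDK enzymes, incubated for 1 h at 30° C.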
# cyclin D1/cdk 4 enzyme = biological target: T2, cyclin D1/cdk 4 enzyme (Homo sapiens, UniProt P11802); assay: CDK4 ELISA kinase assay (phospho-Rb ser 795 detection); type: biochemical
# T2 construct: made in house; host or cells: Sf9 insect cells, recombinant baculovirus
# T2 sequence (P11802 whole entry, species assumed): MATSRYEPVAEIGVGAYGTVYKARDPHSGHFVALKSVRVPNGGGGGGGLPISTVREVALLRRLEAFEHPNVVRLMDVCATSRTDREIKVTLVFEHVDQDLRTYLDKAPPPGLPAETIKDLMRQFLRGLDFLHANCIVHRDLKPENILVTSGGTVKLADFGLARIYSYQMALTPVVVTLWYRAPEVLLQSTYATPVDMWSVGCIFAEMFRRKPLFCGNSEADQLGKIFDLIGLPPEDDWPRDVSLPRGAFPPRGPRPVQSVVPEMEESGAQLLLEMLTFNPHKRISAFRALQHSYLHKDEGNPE
# T2 sequence (P24385 whole entry partner, species assumed): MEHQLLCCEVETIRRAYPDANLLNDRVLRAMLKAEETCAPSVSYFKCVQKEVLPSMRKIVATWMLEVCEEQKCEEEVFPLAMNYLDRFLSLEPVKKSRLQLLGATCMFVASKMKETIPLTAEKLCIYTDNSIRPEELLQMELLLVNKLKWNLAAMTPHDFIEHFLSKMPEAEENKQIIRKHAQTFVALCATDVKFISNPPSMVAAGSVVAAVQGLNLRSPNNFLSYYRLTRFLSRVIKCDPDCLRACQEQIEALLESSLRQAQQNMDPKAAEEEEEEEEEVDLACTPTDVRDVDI
# Method in brief: as §1
# MCF-7 = assay: Cytotoxicity assay (SRB), MCF-7; type: cell-based; details: Homo sapiens, MCF7, 72 h, MCF-7 cells, SRB, read-out: In Vitro Cellular Activity IC50 MCF-7
# Method in brief: (§2)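 Cells were seeded overnight in RPMI 1640 with 5% FBS at 37 °C, 7% CO2 (12000/well BT474, 4000 HCT-116, 6000 LoVo, 6000 MCF-7), then exposed to compound dilutions for 3 days (6 days for BT474). Survival versus untreated controls was measured by TCA fixation and SRB staining at 540 nm.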
# HCT-116 = assay: Cytotoxicity assay (SRB), HCT-116; type: cell-based; details: Homo sapiens, HCT-116, 72 h, HCT116 cells, SRB, read-out: In Vitro Cellular Activity IC50 HCT116
# Method in brief: as §2
# cyclin B/CDK1 enzyme = biological target: T3, cyclin B/CDK1 enzyme (Homo sapiens, UniProt P06493); assay: CDK1 ELISA kinase assay (phospho-Rb ser 795 detection); type: biochemical
# T3 construct: purchased New England BioLabs; host or cells: Sf9 insect cells, recombinant baculovirus
# T3 sequence (P06493 whole entry): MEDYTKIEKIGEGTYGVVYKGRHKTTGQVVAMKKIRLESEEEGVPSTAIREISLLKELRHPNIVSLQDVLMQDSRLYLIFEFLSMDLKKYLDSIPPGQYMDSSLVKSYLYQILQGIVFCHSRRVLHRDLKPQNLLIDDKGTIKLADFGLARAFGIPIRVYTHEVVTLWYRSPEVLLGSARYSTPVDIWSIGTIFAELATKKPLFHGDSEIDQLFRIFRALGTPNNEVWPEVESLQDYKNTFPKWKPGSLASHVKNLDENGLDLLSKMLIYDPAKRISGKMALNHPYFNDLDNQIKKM
# T3 sequence (P14635 whole entry partner): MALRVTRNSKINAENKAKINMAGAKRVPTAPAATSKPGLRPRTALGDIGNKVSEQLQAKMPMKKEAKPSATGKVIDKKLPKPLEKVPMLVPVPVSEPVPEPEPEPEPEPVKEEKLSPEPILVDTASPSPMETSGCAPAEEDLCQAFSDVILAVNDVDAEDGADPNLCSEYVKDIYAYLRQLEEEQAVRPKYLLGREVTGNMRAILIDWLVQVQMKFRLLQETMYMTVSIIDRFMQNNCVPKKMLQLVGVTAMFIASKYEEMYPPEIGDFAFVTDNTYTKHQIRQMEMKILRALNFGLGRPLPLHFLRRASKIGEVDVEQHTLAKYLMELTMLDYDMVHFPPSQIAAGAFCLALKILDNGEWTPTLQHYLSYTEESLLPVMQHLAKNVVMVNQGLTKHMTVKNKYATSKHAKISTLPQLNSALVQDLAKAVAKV
# Method in brief: as §1
# BT474 = assay: Cytotoxicity assay (SRB), BT474; type: cell-based
# Method in brief: as §2
# LoVo = assay: Cytotoxicity assay (SRB), LoVo; type: cell-based; details: Homo sapiens, LoVo, 72 h, LoVo cells, SRB, read-out: In Vitro Cellular Activity IC50 LOVO
# Method in brief: as §2
# [1] = In Vitro Enzyme Assays, read-out: CDK2 IC50
# [2] = In Vitro Enzyme Assays, 200 μM ATP, read-out: CDK4 IC50
# [3] = In Vitro Enzyme Assays, read-out: CDK1 IC50
# [4] = Homo sapiens, BT-474, 144 h, BT474 cells, SRB, 6 days; read-out: In Vitro Cellular Activity IC50 BT474
# [5] = Homo sapiens, BT-474, 144 h, BT474 cells, 6 days, SRB; read-out: In Vitro Cellular Activity IC50 BT474
# [6] = In Vitro Enzyme Assay, cyclin E/CDK2, read-out: CDK2 IC50
# [7] = In Vitro Enzyme Assay, cyclin D1/cdk 4, read-out: CDK4 IC50
# [8] = In Vitro Enzyme Assay, cyclin B/CDK1, read-out: CDK1 IC50
# [9] = CDK4 IC50, In Vitro Enzyme Assays, 200 μM ATP
SMILES,IC50 (cyclin E/CDK2 enzyme; [1]) [µM],IC50 (cyclin D1/cdk 4 enzyme; [2]) [µM],IC50 (MCF-7; three days) [µM],IC50 (HCT-116; three days) [µM],IC50 (cyclin B/CDK1 enzyme; [3]) [µM],IC50 (BT474; [4]) [µM],IC50 (LoVo; three days) [µM],IC50 (MCF-7; 3 days) [µM],IC50 (HCT-116; 3 days) [µM],IC50 (BT474; [5]) [µM],IC50 (LoVo; 3 days) [µM],IC50 (cyclin E/CDK2 enzyme; [6]) [µM],IC50 (cyclin D1/cdk 4 enzyme; [7]) [µM],IC50 (cyclin B/CDK1 enzyme; [8]) [µM],IC50 (cyclin D1/cdk 4 enzyme; [9]) [µM],"IC50 (cyclin B/CDK1 enzyme; CDK1 IC50, In Vitro Enzyme Assays) [µM]"
"C[C@@H]1CN(c2ccc(N/C=C3\C(=O)NC(=O)c4ccc(-c5ccoc5)cc43)cc2)C[C@H](C)N1 [Example 207, (4Z)-4-({[4-(3,5-Dimethylpiperazin-1-yl)phenyl]amino}methylene)-6-(3-furyl)iso-quinoline-1,3(2H,4H)-dione]",> 50,0.2,0.69,1.1,> 50,0.79,2.2,–,–,–,–,–,–,–,–,–
"O=C1NC(=O)c2ccc(I)cc2/C1=C/Nc1ccc(N2CCN(CCO)CC2)cc1 [Example 401, (4Z)-4-[({4-[4-(2-Hydroxyethyl)piperazin-1-yl]phenyl}amino)methylene]-6-iodoisoquinoline-1,3(2H,4H)-dione]",> 50,0.47,–,–,23.1,–,–,5.1,2.6,4.45,6.7,–,–,–,–,–
"O=C1NC(=O)c2ccc(N(CCC(F)(F)F)CCC(F)(F)F)cc2C1=CNCc1ccc(O)c(O)c1 [Example 611, 6-[Bis-(3,3,3-trifluoro-propyl)-amino]-4-[(3,4-dihydroxy-benzylamino)-methylene]-4H-isoquinoline-1,3-dione]",–,–,–,–,–,–,–,13.2,14.1,23.6,16.1,18.1,12.9,18.1,–,–
"O=C1NC(=O)c2ccc(-c3cccs3)cc2/C1=C/Nc1ccc(CN2CCC[C@H]2CO)cc1 (stereo in doubt) [Example 438, 4-{[4-(2-Hydroxymethyl-pyrrolidin-1-ylmethyl)-phenylamino]-methylene}-6-thiophen-2-yl-4H-isoquinoline-1,3-dione]",> 50,0.04,–,–,> 50,–,–,1.8,1.6,2.2,1.6,–,–,–,–,–
"C[C@@H]1CN(c2ccc(N/C=C3\C(=O)NC(=O)c4ccc(-c5ccsc5)cc43)cc2)C[C@H](C)N1 [Example 206, (4Z)-4-({[4-(3,5-Dimethylpiperazin-1-yl)phenyl]amino}methylene)-6-thien-3-ylisoquinoline-1,3(2H,4H)-dione]",> 50,0.16,3.7,1.6,41.9,2.9,7.4,–,–,–,–,–,–,–,–,–
"C=CC(=O)Nc1cnc(CN/C=C2\C(=O)NC(=O)c3ccc(I)cc32)cc1O [Example 428, N-(4-Hydroxy-6-{[(6-iodo-1,3-dioxo-2,3-dihydro-1H-isoquinolin-4-ylidenemethyl)-amino]-methyl}-pyridin-3-yl)-acrylamide]",0.7,0.13,–,–,6.4,–,–,1.67,0.77,0.07,0.65,–,–,–,–,–
"CCC1CCCN1Cc1ccc(N/C=C2\C(=O)NC(=O)c3ccc(I)cc32)cc1 (centres unmarked) [Example 436, 4-{[4-(2-Ethyl-pyrrolidin-1-ylmethyl)-phenylamino]-methylene}-6-iodo-4H-isoquinoline-1,3-dione]",> 50,0.26,–,–,> 50,–,–,1.5,2.5,0.4,2.3,–,–,–,–,–
"CC(C)[Si](Oc1cc(CN/C=C2\C(=O)NC(=O)c3ccc(I)cc32)ccc1N)(C(C)C)C(C)C [Example 323, (4Z)-4-[({4-Amino-3-[(triisopropylsilyl)oxy]benzyl}amino)methylene]-6-iodoisoquinoline-1,3(2H,4H)-dione]",42.5,–,10,22,–,18.3,> 50,–,–,–,–,–,–,–,1.9,> 50
"CCCOc1cc(CN/C=C2\C(=O)NC(=O)c3ccc(Br)cc32)cc(O)c1OCCC [Example 212, (4Z)-6-Bromo-4-{[(3-hydroxy-4,5-dipropoxybenzyl)amino]methylene}isoquinoline-1,3(2H,4H)-dione]",> 50,0.77,37,25,> 50,47,30,–,–,–,–,–,–,–,–,–
"NS(=O)(=O)c1ccc(CNC=C2C(=O)NC(=O)c3ccc(-c4ccccc4F)cc32)cc1 [Example 740, 4-({[6-(2-Fluoro-phenyl)-1,3-dioxo-2,3-dihydro-1H-isoquinolin-4-ylidenemethyl]-amino}-methyl)-benzenesulfonamide]",–,–,–,–,–,–,–,8.3,7.7,9.7,10,3.7,1.81,13.5,–,–
"CCN(CC)Cc1ccc(NC=C2C(=O)NC(=O)c3ccccc32)cc1 [Example 574, 4-[(4-Diethylaminomethyl-phenylamino)-methylene]-4H-isoquinoline-1,3-dione]",–,–,–,–,–,–,–,14,10.3,10.6,29.8,30.4,5.5,18.5,–,–
"O=C1CC[C@@H](CN/C=C2\C(=O)NC(=O)c3ccc(I)cc32)N1 (stereo in doubt) [Example 427, 6-Iodo-4-{[(5-oxo-pyrrolidin-2-ylmethyl)-amino]-methylene}-4H-isoquinoline-1,3-dione]",> 50,2.1,–,–,> 50,–,–,22.4,17.8,23.2,22.7,–,–,–,–,–
"Nc1cnc(CN/C=C2\C(=O)NC(=O)c3ccc(I)cc32)cc1O [Example 424, 4-{[(5-Amino-4-hydroxy-pyridin-2-ylmethyl)-amino]-methylene}-6-iodo-4H-isoquinoline-1,3-dione]",1.5,0.06,–,–,6.3,–,–,> 50,> 50,12.7,> 50,–,–,–,–,–
"CCCCn1ccc(CN/C=C2\C(=O)NC(=O)c3ccc(I)cc32)cc1=O [Example 529, (4Z)-6-Iodo-4-({[(1-butyl-2-oxo-1,2-dihydropyridin-4-yl)methyl]amino}methylene)isoquinoline-1,3(2H,4H)-dione]",–,–,–,–,–,–,–,2.4,1.7,1.2,1.5,5,0.1,22.4,–,–
"O=C1NC(=O)c2ccc(Br)cc2/C1=C/NCCCN1CCOCC1 [Example 310, (Z)-6-Bromo-4-((3-morpholinopropylamino)methylene)isoquinoline-1,3(2H,4H)-dione]",> 50,9.4,11,21,> 50,27,17,–,–,–,–,–,–,–,–,–
"COc1ccc(CN/C=C2\C(=O)NC(=O)c3ccccc32)cc1O [Example 98, (4Z)-4-{[(3-Hydroxy-4-methoxybenzyl)amino]methylene}isoquinoline-1,3(2H,4H)-dione]",7.1,–,24.1,17.9,> 50,16.8,19.3,–,–,–,–,–,–,–,0.21,–
"CC(=O)Nc1ccc(CN/C=C2\C(=O)NC(=O)c3ccc(I)cc32)cc1O [Example 151, N-[2-Hydroxy-4-({[(Z)-(6-iodo-1,3-dioxo-2,3-dihydroisoquinolin-4(1H)-′ylidene)methyl]amino}methyl)phenyl]acetamide]",1.8,0.03,6.6,1.3,36.4,0.9,1.9,–,–,–,–,–,–,–,–,–
